Experiments:
Bacillus subtilis 168 = assay: Evaluation of Bacillus subtilis protective activity in freeze-dried condition; type: cell-based; conditions: for Numbers of live bacterial cells (relative numbers): Bacillus subtilis freeze-dried with 6% aqueous solution (final concentration 3%), test sample 3 (FD) = 1
Procedure: Using test samples 1 to 5 containing Bacillus subtilis prepared in the following manner, microorganism-protective activity with trehalose or 4-trehalosamine in a freeze-dried condition was evaluated.
Frozen stock of Bacillus subtilis (Bacillus subtilis 168 (obtained from ATCC)) was inoculated in 10 mL of Luria-Bertani (LB) culture medium (manufactured by Difco) and cultured at 37° C. for 24 hours while shaking it at 220 rpm. After culture, it was centrifuged at 3,000×g for 5 minutes, washed once with 10 mL of water, and then suspended in 10 mL of water, thus obtaining Bacillus subtilis suspension. 50 μL of water was added to and mixed with 50 μL of this Bacillus subtilis suspension, and the mixture was left to stand at 4° C. for 20 hours, preparing control (NF).
After Bacillus subtilis suspension was prepared in a similar manner to test sample 1, 50 μL of 6% aqueous solution of trehalose was added to and mixed with 50 µL of the Bacillus subtilis suspension, and the mixture was frozen at −80° C. for 10 minutes. It was then freeze-dried for 20 hours with a freeze dryer (FLEXI-DRY, manufactured by FTS systems INC., Warminster) connected to a vacuum pump (P65D, manufactured by PHIL Sato Vac INC.), preparing freeze-dried product (TRH) of Bacillus subtilis with TRH.
Freeze-dried product (4TA) of Bacillus subtilis with 4TA was obtained in a similar manner to the preparation method of test sample 4 except that trehalose was changed to 4-trehalosamine (4TA) in the preparation method of test sample 4.
For test samples 1 and 2, serial suspensions were made by diluting them to 1/10 with water. 100 μL of water was added to each of the freeze-dried products of test samples 3 to 5 and diluted to 1/10 with water to make their serial suspensions. […]
Wells in which the number of colonies was measurable were selected and the numbers (relative numbers) of live bacterial cells per well on test samples 1, 2, 4, and 5 when the number of live bacterial cells per well on test sample 3 (FD) was “1” were calculated in consideration of the dilution concentrations of those test samples.

[1] = test system: aggregated proteins Q74 and SynA53T in SH-SY5Y cells and NH-12 cells; assay: Elimination effect on aggregated protein in cells (Q74, SynA53T); type: cell-based, human; conditions: 100 mM 4-trehalosamine, 70 μM IMCTA-C14 or 100 mM trehalose, 14 hours; SH-SY5Y and NH-12 cells
Procedure: The effect of 4-trehalosamine or trehalose analog on Q74, which is partial peptide of huntingtin (Htt), the causal protein of Huntington's disease, and SynA53T, which is a mutation of α-synuclein, the causal protein of Parkinson's disease, (both aggregated proteins) was determined in the following manner.
Neuroblastoma cells SH-SY5Y (obtained from European Collection of Authenticated Cell Cultures (ECACC)) and human neuroblastoma cells NH-12 (obtained from RIKEN BRC) were each inoculated at 14×10^4 cells/mL and cultured in DMEM culture medium at 37° C. for 48 hours.
After the culture of SH-SY5Y cells and NH-12 cells, pEGFP-Q74 vector or EGFP-alphasynuclein-A53T (both obtained from addgene), which are expression vectors of aggregated protein, were transfected with transfection reagent (Viafect, manufactured by Promega). After 24 hours from the transfection, 100 mM 4-trehalosamine, 70 μM IMCTA-C14, or 100 mM trehalose was added and the cells were further treated for 14 hours. Untreated cells without addition of the compounds were used as control. After washing the cells three times with PBS, hyposmotic fluid (solution of one tablet of cOmplete, Mini, EDTA-free Protease Inhibitor Cocktail (CM, manufactured by Merck) in 50 mL of pure water) was added and the mixture was shaken on ice for 10 minutes. It was then centrifuged at 21,300×g for 10 minutes to be separated into soluble protein (Sol) and aggregated protein (Agg) […]. Thereafter, they were turned into samples for western blotting in a similar manner to test example 10-1.
The western blotting was performed in a similar manner to test example 4 except that anti-GFP antibody (manufactured by Proteintech) was used at 1/5,000 dilution and anti-LC3 antibody (manufactured by Cell Signaling Technology) was used at 1/2,000 dilution as the primary antibodies in the method described in test example 4. The results for neuroblastoma cells SH-SY5Y are shown in FIGS. 22A and 22B, and the results for human neuroblastoma cells NH-12 are shown in FIGS. 22C and 22D. […]

Structure (SMILES)	Numbers of live bacterial cells (relative numbers) (Bacillus subtilis 168)	aggregate of Q74 and aggregate of SynA53T [1]	protective effect on microorganisms, comparison (Bacillus subtilis 168; Bacillus subtilis, freeze-dried)
OC[C@H]1O[C@H](O[C@H]2O[C@H](CO)[C@@H](O)[C@H](O)[C@H]2O)[C@H](O)[C@@H](O)[C@@H]1O [trehalose, reference compound]	10	significantly decreased	–
N[C@H]1[C@H](O)[C@@H](O)[C@@H](O[C@H]2O[C@H](CO)[C@@H](O)[C@H](O)[C@H]2O)O[C@@H]1CO [4-trehalosamine]	100	significantly decreased	stronger than when trehalose was added
